Assay type in all cases: functional, cell-based
One experiment deals with PANC-1. Put plainly: Antiproliferative activity against human PANC1 cells harboring KRAS G12D mutant assessed as inhibition of cell viability after 24 hrs by MTT assay. The note with it: PANC-1, 24 h.
For another experiment, the system named is SW1990. The experiment can be described thus: Antiproliferative activity against human SW1990 cells harboring KRAS G12D mutant assessed as inhibition of cell viability after 24 hrs by MTT assay. The note with it: SW1990, 24 h.
Another experiment deals with CT26. Put plainly: Antiproliferative activity against mouse CT26 cells harboring KRAS G12D mutant assessed as inhibition of cell viability after 24 hrs by MTT assay. The settings on record: CT26, 24 h.
Another experiment concerns HCT-116. Put plainly: Antiproliferative activity against human HCT-116 cells harboring KRAS G13D mutant assessed as inhibition of cell viability after 24 hrs by MTT assay. The settings on record: HCT-116, 24 h.
For a further experiment, the system named is NCI-H358. The experiment can be described thus: Antiproliferative activity against human NCI-H358 cells harboring KRAS G12C mutant assessed as inhibition of cell viability after 24 hrs by MTT assay. The note with it: NCI-H358, 24 h.
The subject of a further experiment is HeLa. Put plainly: Antiproliferative activity against human HeLa cells harboring wild type KRAS assessed as inhibition of cell viability after 24 hrs by MTT assay.

Bounds are passed on as bounds.

For the molecule `Fc1cc(-c2cc3c(N4CC5CCC(C4)N5)ncnc3s2)ccc1Cl`, the IC50 in the experiment on PANC-1 worked out at 24.7 µM; in the experiment with SW1990 it was 15.9 µM; in the experiment on CT26 it was 13 µM.
The matching figures for `c1ccc(-c2cc3c(N4CC5CC(C4)N5)ncnc3s2)cc1`: 30.5 µM, 40.1 µM and 40.5 µM.
Taken in the same sequence, the figures for `Fc1cc(-c2cc3c(N4CC5CCC(C4)N5)ncnc3s2)cc(C(F)(F)F)c1` were 12.9 µM, 7.2 µM and 14.7 µM.
The matching figures for `O=[N+]([O-])c1ccc(-c2cc3c(N4CC5CCC(C4)N5)ncnc3s2)cc1`: 16.8 µM, 8.7 µM and 4.4 µM.
As to `COc1ccc(Cl)c(-c2cc3c(N4CC5CCC(C4)N5)ncnc3s2)c1`, the results for the IC50 with PANC-1, in the experiment with SW1990 and with CT26 were 6.7 µM, 8 µM and 8.4 µM, respectively.
As to `Clc1ccc(-c2cc3c(N4CC5CCC(C4)N5)ncnc3s2)cc1Cl`, the IC50 with PANC-1 turned out to be 7.5 µM; with SW1990, 12.1 µM; in the experiment on HCT-116, 9.9 µM; in the experiment on NCI-H358, 9.4 µM; in the experiment on HeLa, 12.5 µM; in the experiment with CT26, 7.1 µM.
Turning to `Cc1ccc(-c2cc3c(N4CC5CCC(C4)N5)ncnc3s2)c(Cl)c1`, the results for the IC50 in the experiment on PANC-1, with SW1990 and with CT26 were 11.4 µM, 15.8 µM and 13.8 µM, respectively.
As for `Fc1ccc(F)c(-c2cc3c(N4CC5CCC(C4)N5)ncnc3s2)c1`, the IC50 is 6.1 µM in the experiment on PANC-1; 17.8 µM in the experiment with SW1990; 27.3 µM in the experiment on HCT-116; 21.5 µM in the experiment on NCI-H358; > 40 µM with HeLa; 11.8 µM in the experiment on CT26.
Consider `COc1ccc(Cl)cc1-c1cc2c(N3CC4CCC(C3)N4)ncnc2s1`, for which the IC50 with PANC-1 worked out at 4 µM; in the experiment with SW1990, 4.9 µM; with HCT-116, 9.7 µM; in the experiment with NCI-H358 it was 9.4 µM; in the experiment on HeLa it was 8.5 µM; in the experiment on CT26, 5.7 µM.
For `FC(F)(F)c1cc(Cl)cc(-c2cc3c(N4CC5CCC(C4)N5)ncnc3s2)c1`, the half-maximal inhibitory concentration (IC50) worked out at 5.3 µM in the experiment with PANC-1; 7.7 µM with SW1990; 8.2 µM in the experiment with HCT-116; 9.1 µM with NCI-H358; 8.8 µM with HeLa; 6.5 µM in the experiment on CT26.
Turning to `COc1cccc(F)c1-c1cc2c(N3CC4CCC(C3)N4)ncnc2s1`, the IC50 with PANC-1 came to 15.2 µM; in the experiment on SW1990 it was 18.8 µM; in the experiment on CT26, 17 µM.
The matching figures for `Fc1ccc(-c2cc3c(N4CC5CCC(C4)N5)ncnc3s2)c(F)c1`: 13 µM, 13.4 µM and 15.6 µM.
Taken in the same sequence, the figures for `Cc1ccc(-c2cc3c(N4CC5CCC(C4)N5)ncnc3s2)c(C)c1` were 10.1 µM, 5.9 µM and 13.4 µM.
Taken in the same sequence, the figures for `FC(F)(F)c1ccc(-c2cc3c(N4CC5CCC(C4)N5)ncnc3s2)cc1` were 10.3 µM, 6.2 µM and 6.9 µM.
`COc1ccc(F)cc1-c1cc2c(N3CC4CCC(C3)N4)ncnc2s1`: the IC50 is > 20 µM in the experiment on PANC-1, 16.8 µM in the experiment on SW1990 and 22.6 µM in the experiment on CT26.
The matching figures for `COc1ccc(-c2cc3c(N4CC5CCC(C4)N5)ncnc3s2)cc1F`: 10.2 µM, 13.3 µM and 14.1 µM.
In the case of `Clc1ccc(Cl)c(-c2cc3c(N4CC5CCC(C4)N5)ncnc3s2)c1`, the IC50 with PANC-1 stood at 4.3 µM; with SW1990 it was 7.7 µM; in the experiment with HCT-116 it was 15.9 µM; with NCI-H358, 10.1 µM; with HeLa, 11.3 µM; in the experiment on CT26 it was 6.5 µM.
On to `COc1cc(-c2cc3c(N4CC5CCC(C4)N5)ncnc3s2)cc(C(F)(F)F)c1`, for which the concentration for half-maximal inhibition (IC50) is 7.7 µM with PANC-1; 5.8 µM in the experiment with SW1990; 8 µM with HCT-116; 4.5 µM in the experiment on NCI-H358; 10.5 µM with HeLa; 7.2 µM in the experiment with CT26.
With `FC(F)(F)c1ccc(Cl)c(-c2cc3c(N4CC5CCC(C4)N5)ncnc3s2)c1`, the IC50 with PANC-1 was 9.4 µM; in the experiment with SW1990, 4.2 µM; in the experiment with CT26, 9.7 µM.
Taken in the same sequence, the figures for `COc1cc(-c2cc3c(N4CC5CCC(C4)N5)ncnc3s2)cc(OC)c1OC` were > 20 µM, > 20 µM and 25 µM.
Regarding `C=CC(=O)N1CCN(c2ncnc3c(F)c(-c4c(O)cccc4F)c(Cl)cc23)CC1`, the half-inhibitory concentration (IC50) in the experiment with PANC-1 is > 20 µM; in the experiment on SW1990, > 20 µM; in the experiment on HCT-116, > 20 µM; with NCI-H358 it was 0.2 µM; in the experiment with HeLa, > 20 µM; with CT26, > 20 µM.
Turning to `COc1ccc(F)c(-c2cc3c(N4CC5CCC(C4)N5)ncnc3s2)c1`, the IC50 in the experiment on PANC-1 is 7.9 µM; in the experiment on SW1990 it was 10.2 µM; with CT26, 9.8 µM.
Consider `c1ccc(-c2cccc3ccccc23)c(-c2cc3c(N4CC5CCC(C4)N5)ncnc3s2)c1`, for which the 50% inhibitory concentration (IC50) stood at 2.8 µM with PANC-1; 7.7 µM in the experiment on SW1990; 7.9 µM in the experiment on HCT-116; 11.5 µM in the experiment on HeLa; 12.4 µM in the experiment on CT26.
`COc1cc(Cl)ccc1-c1cc2c(N3CC4CCC(C3)N4)ncnc2s1`: the 50% inhibitory concentration (IC50) in the experiment on PANC-1 was found to be 6.8 µM; in the experiment with SW1990, 9.2 µM; in the experiment with HCT-116 it was 4.9 µM; in the experiment with NCI-H358, 9.4 µM; in the experiment on HeLa, 7.7 µM; with CT26, 7.2 µM.

(Values after ChEMBL document CHEMBL5154793, “Discovery of Thieno[2,3-d]pyrimidine-based KRAS G12D inhibitors as potential anticancer agents via combinatorial virtual screening” (Eur J Med Chem, 2022).)
